Results on seven molecules are retold here after ChEMBL document CHEMBL3091341, “Chlorophenylpiperazine analogues as high affinity dopamine transporter ligands” (Bioorg Med Chem Lett, 2013).

Assay [1] can be described thus: Displacement of [3H]TCP from N-methyl D-aspartate receptor phencyclidine binding site in rat brain after 120 mins by liquid scintillation counting analysis. Type of assay: tissue-based. Background: Loss of bound radioactivity is the signal in a displacement assay; it reports binding, not function.
Assay [2] in a line: Binding affinity to rat opioid receptor after 120 mins by radioligand displacement assay.
A short description of assay [3]: Displacement of [3H]nisoxetine from norepinephrine transporter in rat cerebral cortex after 120 mins by liquid scintillation counting analysis. Type of assay: tissue-based.
For assay [4], the target named is Sodium-dependent serotonin transporter (Rattus norvegicus, UniProt P31652). The assay is described as follows: Displacement of [3H]paroxetine from serotonin transporter in rat brainstem after 120 mins by liquid scintillation counting analysis. It counts as tissue-based.
Sequence of Sodium-dependent serotonin transporter (P31652 whole entry): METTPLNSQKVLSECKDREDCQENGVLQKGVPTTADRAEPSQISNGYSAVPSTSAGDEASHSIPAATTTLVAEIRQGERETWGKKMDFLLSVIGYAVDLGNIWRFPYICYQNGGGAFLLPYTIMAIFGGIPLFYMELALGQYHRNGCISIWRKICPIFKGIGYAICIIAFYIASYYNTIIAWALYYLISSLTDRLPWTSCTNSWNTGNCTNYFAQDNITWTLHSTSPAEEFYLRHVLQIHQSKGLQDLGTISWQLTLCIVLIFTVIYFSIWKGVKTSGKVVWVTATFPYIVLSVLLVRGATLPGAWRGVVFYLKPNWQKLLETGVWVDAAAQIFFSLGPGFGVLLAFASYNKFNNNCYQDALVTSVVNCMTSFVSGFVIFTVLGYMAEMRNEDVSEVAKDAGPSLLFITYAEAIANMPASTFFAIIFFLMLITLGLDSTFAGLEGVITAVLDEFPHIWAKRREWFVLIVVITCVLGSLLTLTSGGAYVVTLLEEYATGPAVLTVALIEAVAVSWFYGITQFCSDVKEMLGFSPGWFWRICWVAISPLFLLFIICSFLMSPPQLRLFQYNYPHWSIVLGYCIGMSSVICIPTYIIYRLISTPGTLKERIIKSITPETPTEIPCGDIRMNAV
The next assay has as its target D(2) dopamine receptor (Rattus norvegicus, UniProt P61169). The assay is described as follows: Displacement of [3H](-)-sulpiride from dopamine D2 receptor in rat brain after 120 mins by liquid scintillation counting analysis. Type of assay: tissue-based.
In assay [5] the target is 5-hydroxytryptamine receptor 2A (Rattus norvegicus, UniProt P14842). The assay is described as follows: Displacement of [3H]ketanserin from 5-HT2 receptor in rat brain after 120 mins by liquid scintillation counting analysis. Type of assay: tissue-based.
Sequence of 5-hydroxytryptamine receptor 2A (P14842 whole entry): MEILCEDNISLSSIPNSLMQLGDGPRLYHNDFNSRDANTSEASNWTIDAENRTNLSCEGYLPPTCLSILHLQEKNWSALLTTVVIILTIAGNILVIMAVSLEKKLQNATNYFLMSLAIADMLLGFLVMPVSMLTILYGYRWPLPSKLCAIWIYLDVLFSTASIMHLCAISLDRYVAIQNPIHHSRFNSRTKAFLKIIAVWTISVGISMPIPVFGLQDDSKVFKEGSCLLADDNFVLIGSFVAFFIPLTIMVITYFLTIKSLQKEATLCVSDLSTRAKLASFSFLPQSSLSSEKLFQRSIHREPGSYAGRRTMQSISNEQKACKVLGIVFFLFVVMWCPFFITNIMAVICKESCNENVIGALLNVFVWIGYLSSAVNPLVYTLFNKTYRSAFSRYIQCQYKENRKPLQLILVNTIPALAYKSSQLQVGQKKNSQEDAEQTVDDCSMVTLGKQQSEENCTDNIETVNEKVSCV
Assay [6] is filed under the species Rattus norvegicus. The assay is described as follows: Selectivity ratio of Ki for rat brain sigma1 receptor to Ki for rat striatum dopamine transporter. It counts as tissue-based.
Assay [7] addresses Sodium-dependent dopamine transporter (Rattus norvegicus, UniProt P23977). The assay is described as follows: Displacement of [3H]WIN 35428 from dopamine transporter in rat striatum after 120 mins by liquid scintillation counting analysis.
For assay [8], the species on record is Rattus norvegicus. Kind of assay: Selectivity ratio of Ki for rat brain sigma1 receptor to Ki for rat brain sigma2 receptor.
Assay [9] is described as follows: Displacement of [3H]di-o-tolylguanidine from sigma2 receptor in rat brain after 120 mins by liquid scintillation counting analysis. It counts as tissue-based.
The target in assay [10] is Sigma non-opioid intracellular receptor 1 (Rattus norvegicus, UniProt Q9R0C9). Kind of assay: Displacement of [3H](+)-pentazocine from sigma1 receptor in rat brain after 120 mins by liquid scintillation counting analysis. Type of assay: tissue-based.
Sequence of Sigma non-opioid intracellular receptor 1 (Q9R0C9 whole entry): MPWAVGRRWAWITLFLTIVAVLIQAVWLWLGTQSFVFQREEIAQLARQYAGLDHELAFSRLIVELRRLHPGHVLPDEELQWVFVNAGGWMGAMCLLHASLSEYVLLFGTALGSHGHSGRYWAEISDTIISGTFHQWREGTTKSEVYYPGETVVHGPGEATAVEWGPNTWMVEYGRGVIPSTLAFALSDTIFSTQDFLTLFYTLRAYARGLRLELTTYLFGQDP

Sequence of Sodium-dependent dopamine transporter (P23977 whole entry): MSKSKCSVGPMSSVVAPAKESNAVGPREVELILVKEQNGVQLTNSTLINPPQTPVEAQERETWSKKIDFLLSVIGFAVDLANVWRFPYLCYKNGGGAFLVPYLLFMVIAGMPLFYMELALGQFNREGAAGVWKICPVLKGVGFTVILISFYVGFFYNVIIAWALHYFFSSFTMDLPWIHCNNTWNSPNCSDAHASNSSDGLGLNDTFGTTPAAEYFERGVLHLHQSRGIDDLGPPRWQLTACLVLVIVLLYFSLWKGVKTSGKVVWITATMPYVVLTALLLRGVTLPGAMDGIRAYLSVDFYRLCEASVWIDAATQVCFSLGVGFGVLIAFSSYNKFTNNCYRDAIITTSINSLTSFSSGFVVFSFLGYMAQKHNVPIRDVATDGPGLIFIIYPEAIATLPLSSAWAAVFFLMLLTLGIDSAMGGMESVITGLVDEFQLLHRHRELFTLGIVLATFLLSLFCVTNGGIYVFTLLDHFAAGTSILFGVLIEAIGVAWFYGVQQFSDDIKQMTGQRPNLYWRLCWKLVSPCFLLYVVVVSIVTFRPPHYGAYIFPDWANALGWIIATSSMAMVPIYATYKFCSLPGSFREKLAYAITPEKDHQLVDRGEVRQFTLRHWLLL
Sequence of D(2) dopamine receptor (P61169 whole entry): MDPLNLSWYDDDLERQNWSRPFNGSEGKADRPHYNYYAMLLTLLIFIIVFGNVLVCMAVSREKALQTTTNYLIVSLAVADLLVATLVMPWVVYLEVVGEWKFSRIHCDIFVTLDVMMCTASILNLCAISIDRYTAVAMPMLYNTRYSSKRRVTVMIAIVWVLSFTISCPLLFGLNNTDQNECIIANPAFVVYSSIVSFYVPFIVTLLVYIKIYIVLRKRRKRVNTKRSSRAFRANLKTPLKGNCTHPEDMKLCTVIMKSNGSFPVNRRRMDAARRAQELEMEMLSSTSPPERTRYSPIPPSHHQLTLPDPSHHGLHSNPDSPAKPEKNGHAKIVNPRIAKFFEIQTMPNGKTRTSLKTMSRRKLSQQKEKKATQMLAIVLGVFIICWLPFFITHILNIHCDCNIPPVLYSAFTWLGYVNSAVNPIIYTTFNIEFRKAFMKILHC

As a reminder, the Ki is the equilibrium dissociation constant of an inhibitor or competing ligand from its target. As to `Clc1ccc(N2CCN(CCCc3ccccc3)CC2)cc1`, the Ki in assay [1] is over 10000 nM; in assay [2], over 10000 nM; in assay [3], over 10000 nM; in [4] it was 1100 nM; at D(2) dopamine receptor, 660 nM; in assay [5], 391 nM. Also, the Ki stood at 2650 nM in assay [7], 10.9 nM in [9] and 0.12 nM in assay [10]. The results for the Ratio Ki in the assay filed under Rattus norvegicus [6] and in the assay filed under Rattus norvegicus [8] were 4.5e-05 and 0.011, respectively.
Take `Clc1ccccc1N1CCN(CCCc2ccccc2)CC1`: the Ki in assay [1] was over 10000 nM; in [2], 4600 nM; in assay [3] it was over 10000 nM; in assay [4] it was 409 nM; on D(2) dopamine receptor, 77 nM; in [5], 952 nM. For the same molecule, the inhibition constant (Ki) in assay [7] was 482 nM; in [9], 7.79 nM; in assay [10], 0.56 nM. Besides, the Ratio Ki in the assay filed under Rattus norvegicus [6] is 0.0012; in the assay filed under Rattus norvegicus [8] it was 0.072.
`c1ccc(CCCN2CCN(c3ccccn3)CC2)cc1`: the Ki was over 10000 nM in assay [1]; over 10000 nM in assay [2]; over 10000 nM in [3]; over 10000 nM in [4]; 940 nM at D(2) dopamine receptor; 1240 nM in assay [5]. Moreover, the values for the inhibition constant Ki in [7] and in assay [9] were 9150 nM and 4.9 nM, respectively. Further, the Ratio Ki in the assay listed under Rattus norvegicus [6] came out at 0.009; in the assay filed under Rattus norvegicus [8] it was 16.7.
`Clc1cccc(N2CCN(CCc3ccccc3)CC2)c1`: the Ki is over 10000 nM in assay [1]; over 10000 nM in assay [2]; 1110 nM in assay [3]; 802 nM in [4]; 327 nM at D(2) dopamine receptor; 53 nM in assay [5]. Further, the Ki in assay [7] was 0.04 nM; in [9], 82.3 nM; in assay [10] it was 6.47 nM. For the same molecule, the Ratio Ki in the assay filed under Rattus norvegicus [6] is 162; in the assay filed under Rattus norvegicus [8], 0.079.
For `Clc1cccc(N2CCN(CCCc3ccccc3)CC2)c1`, the Ki in assay [1] is over 10000 nM; in assay [2] it was over 10000 nM; in assay [3] it was over 10000 nM; in assay [4], 488 nM; on D(2) dopamine receptor, 128 nM; in [5], 498 nM. Further, the Ki is over 10000 nM in [7], 12.6 nM in [9] and 4.93 nM in assay [10]. Further, the Ratio Ki in the assay listed under Rattus norvegicus [8] was found to be 0.39.
Regarding `Clc1ccccc1N1CCN(CCc2ccccc2)CC1`, the Ki in assay [1] is over 10000 nM; in assay [2], 4830 nM; in [3], 790 nM; in [4], over 10000 nM; on D(2) dopamine receptor it was 67 nM; in [5], 484 nM. For the same molecule, the Ki in [7] was 0.13 nM; in [9], 56.3 nM; in assay [10], 0.15 nM. Also, the Ratio Ki in the assay listed under Rattus norvegicus [6] came out at 1.15; in the assay filed under Rattus norvegicus [8], 0.003.
Take `Clc1ccc(N2CCN(CCc3ccccc3)CC2)cc1`: the Ki in assay [1] was over 10000 nM; in [2], over 10000 nM; in [3], over 10000 nM; in assay [4] it was 372 nM; at D(2) dopamine receptor it was 834 nM; in [5], 518 nM. For the same molecule, the Ki turned out to be 6 nM in [7], 33.3 nM in assay [9] and 1.85 nM in assay [10]. Besides, the results for the Ratio Ki in the assay listed under Rattus norvegicus [6] and in the assay listed under Rattus norvegicus [8] were 0.31 and 0.056, respectively.
